Data as given in ChEMBL document CHEMBL1126676, “On the prediction of binding properties of drug molecules by comparative molecular field analysis” (1993).

test system: not listed separately; assay: Negative logarithm of minimal inhibitory concentration against human rhinovirus 14; type: functional

Structure (SMILES)	-ln (MIC)
CC[C@H]1COC(c2ccc(OCCCCCCCc3cc(C)no3)cc2)=N1	17.7
Cc1cc(CCCCCCCOc2ccc(C3=NCCO3)cc2)on1 [DISOXARIL]	14.3
Cc1cc(CCCCCCCOc2ccc(C3=N[C@@H](C)CO3)cc2Cl)on1	15.4
Cc1cc(CCCCCOc2ccc(C3=NCCO3)cc2Cl)on1	12.9
Cc1cc(CCCCCCCOc2ccc(C3=N[C@@H](C)CO3)cc2)on1	17.3
Cc1cc(CCCCCOc2ccc(C3=N[C@@H](C)CO3)cc2)on1	14.3
Cc1cc(CCCCCOc2ccc(C3=NCCO3)cc2)on1	14.5
Cc1cc(CCCCCCCOc2ccc(C3=N[C@H](C)CO3)cc2)on1	14.7

target: T1, Thermolysin (Bacillus thermoproteolyticus) (UniProt P00800); assay: Binding constant against thermolysin expressed as negative logarithm
T1 sequence (whole entry): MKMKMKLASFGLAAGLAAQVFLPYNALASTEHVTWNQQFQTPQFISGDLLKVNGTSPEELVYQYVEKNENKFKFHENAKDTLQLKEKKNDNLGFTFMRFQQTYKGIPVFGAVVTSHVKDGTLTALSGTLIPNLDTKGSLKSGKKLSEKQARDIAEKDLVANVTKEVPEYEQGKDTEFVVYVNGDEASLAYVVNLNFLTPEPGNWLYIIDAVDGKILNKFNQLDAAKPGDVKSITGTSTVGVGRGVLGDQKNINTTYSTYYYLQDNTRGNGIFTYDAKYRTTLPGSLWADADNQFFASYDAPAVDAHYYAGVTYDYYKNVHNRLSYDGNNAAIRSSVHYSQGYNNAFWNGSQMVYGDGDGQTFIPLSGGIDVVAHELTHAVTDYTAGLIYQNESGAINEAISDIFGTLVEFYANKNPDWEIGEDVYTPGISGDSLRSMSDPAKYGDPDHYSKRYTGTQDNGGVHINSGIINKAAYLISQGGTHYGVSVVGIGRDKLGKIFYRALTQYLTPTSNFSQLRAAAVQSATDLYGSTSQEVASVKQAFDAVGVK

Structure (SMILES)	-ln K
CC(C)CC(OP(=O)(O)CNC(=O)OCc1ccccc1)C(=O)NCC(=O)O (stereo unspecified)	8.38
CC(NC(=O)C(Cc1ccccc1)C(=O)NO)C(=O)NCCO (stereo unspecified)	14.7
CC(C)CC(OP(=O)(O)CNC(=O)OCc1ccccc1)C(=O)NC(Cc1ccccc1)C(=O)O (stereo unspecified)	9.85
CC(C)CC(OP(=O)(O)CNC(=O)OCc1ccccc1)C(=O)NC(C)C(=O)O (stereo unspecified)	11.2
CC(C)CC(NC(=O)C(CC(C)C)OP(=O)(O)CNC(=O)OCc1ccccc1)C(=O)O (stereo unspecified)	11.6
CC(C)CC(CP(=O)(O)CNC(=O)OCc1ccccc1)C(=O)NC(C)C(=O)O (stereo unspecified)	17.8
CC(C)CC(CP(=O)(O)CNC(=O)OCc1ccccc1)C(=O)NCC(=O)O (stereo unspecified)	15
CC(C)CC(N)C(=O)NO (stereo unspecified)	8.57
